Source: patent publication US8632767B2, “3-[1-(3-haloalkyl)triazolyl]phenyl sulphide derivatives as acaricides and insecticides” (Bayer Intellectual Property GmbH, priority 2009, dated 2014)

Key:
[1] = system: greenhouse red spidermite (Tetranychus urticae); experiment: Tetranychus test; OP resistant (TETRUR spray treatment), Example 3; format: in vivo; settings: foliar, 144 h, spray on bean leaf discs, after 6 days, read-out: effect (mites killed)
Procedure: Solvents: 78.0 parts by weight of acetone • • 1.5 parts by weight of dimethylformamide Emulsifier: 0.5 part by weight of alkylaryl polyglycol ether An appropriate preparation of active compound is prepared by mixing 1 part by weight of active compound with the stated amounts of solvent and emulsifier and diluting the concentrate with emulsifier-containing water to the desired concentration. Leaf discs of bean (Phaseolus vulgaris) infested by all stages of the greenhouse red spidermite (Tetranychus urticae) are sprayed with a preparation of active compound at the desired concentration. After 6 days, the effect in % is determined. Here, 100% means that all of the mites have been killed; 0% means that no mites have been killed.

[2] = log P by HPLC on reversed-phase C18, LC-MS, pH 2.7, formic acid (HCOOH); format: physicochemical; settings: reversed-phase C18 HPLC column; HPLC C18, pH 2.7, 0.1% aqueous formic acid/acetonitrile
Procedure: The log P values reported in the table above and in the preparation examples were determined in accordance with EEC Directive 79/831 Annex V.A8 by HPLC (High Performance Liquid Chromatography) on reversed-phase columns (C18), with the following methods: ^[b] The determination is made by LC-MS in the acid range at pH 2.7 with 0.1% aqueous formic acid and acetonitrile (containing 0.1% formic acid) as eluents; linear gradient from 10% acetonitrile to 95% acetonitrile. Calibration took place with unbranched alkan-2-ones (having 3 to 16 carbon atoms) of known log P values (log P values determined from the retention times by linear interpolation between two successive alkanones).

[3] = system: Boophilus microplus; experiment: Boophilus microplus test (BOOPMI injection); format: in vivo; settings: Rhipicephalus microplus, 168 h; 20 μg/animal, injection into abdomen, after 7 days; read-out: activity (no fertile eggs laid)
Procedure: Solvent: Dimethyl Sulphoxide An appropriate preparation of active compound is prepared by mixing 10 mg of active compound with 0.5 ml of solvent and diluting the concentrate with solvent to the desired concentration. The solution of active compound is injected into the abdomen (Boophilus microplus) and the animals are transferred into dishes and kept in a controlled atmosphere. The activity is assessed on the basis of deposition of fertile eggs. After 7 days, the effect in % is determined. Here, 100% means that none of the ticks has laid fertile eggs.

[4] = system: larvae of the mustard beetle (Phaedon cochleariae); experiment: Phaedon test (PHAECO spray treatment); format: in vivo; settings: foliar, 168 h, spray on Chinese cabbage leaf discs, after 7 days, read-out: effect (beetle larvae killed)
Procedure: Solvents: 78.0 parts by weight of acetone • • 1.5 parts by weight of dimethylformamide Emulsifier: 0.5 part by weight of alkylaryl polyglycol ether An appropriate preparation of active compound is prepared by mixing 1 part by weight of active compound with the stated amounts of solvent and emulsifier and diluting the concentrate with emulsifier-containing water to the desired concentration. Leaf discs of Chinese cabbage (Brassica pekinensis) are sprayed with a preparation of active compound at the desired concentration and, after they have dried, are populated with larvae of the mustard beetle (Phaedon cochleariae). After 7 days, the effect in % is determined. Here, 100% means that all of the beetle larvae have been killed; 0% means that no beetle larvae have been killed.

Row | SMILES | pest or weed control at 100 g/ha [1] [%] | chromatographic logP [2] | pest or weed control at 0.02 mg [3] [%] | pest or weed control at 500 g/ha [1] [%] | pest or weed control at 500 g/ha [4] [%]
1 | Cc1cc(C)c(-n2cnc(C(F)F)n2)cc1SCC(F)(F)C(F)(F)F [I-A-37] | 100 | 3.86 |  |  | 
2 | Cc1cc(C)c(-n2cnc(C(F)(F)C(F)(F)F)n2)cc1SCC1CC1 [I-A-14] | 100 | 5.11 |  |  | 
3 | Cc1cc(C)c([S+]([O-])CC2CC2)cc1-n1cnc(C(F)(F)C(F)(F)F)n1 (centres unmarked) [I-A-11] | 100 | 3.11 | 100 |  | 
4 | Cc1cc(C)c([S+]([O-])CCC(F)(F)F)cc1-n1cnc(C(F)F)n1 (centres unmarked) [I-A-17] | 100 | 2.28 | 100 |  | 
5 | CSc1cc(-n2cnc(C(F)F)n2)c(F)cc1C [I-A-38] |  | 2.93 |  | 100 | 
6 | Cc1cc(Cl)c(-n2cnc(C(F)F)n2)cc1SSc1cc(-n2cnc(C(F)F)n2)c(Cl)cc1C [II-A-3] |  | 4.53 |  |  | 
7 | Cc1cc(F)c(-n2cnc(C(F)F)n2)cc1SSc1cc(-n2cnc(C(F)F)n2)c(F)cc1C [II-A-2] |  | 4.33 |  |  | 
8 | CSc1cc(-n2cnc(C(F)F)n2)c(C)cc1C [I-A-18] |  | 3.01 |  | 100 | 
9 | Cc1ccc(-n2cnc(C(F)F)n2)c(F)c1 [IV-A-3] |  | 2.31 |  | 90 | 
10 | Cc1ccc(NNC(=O)C(F)(F)C(F)F)c(C)c1 [V-3] |  | 2.46 |  |  | 
11 | Cc1cc(C)c([S+]([O-])CC(F)F)cc1-n1cnc(C(F)F)n1 (centres unmarked) [I-A-3] | 100 | 1.9 | 100 |  | 
12 | Cc1cc(C)c(-n2cnc(C(F)(F)C(F)(F)F)n2)cc1SSc1cc(-n2cnc(C(F)(F)C(F)(F)F)n2)c(C)cc1C [II-A-4] |  | 6.36 |  |  | 
13 | Cc1ccc(-n2cnc(C(F)F)n2)c(Cl)c1 [IV-A-4] |  | 2.46 |  |  | 
14 | Cc1cc(C)c(-n2cnc(C(F)(F)C(F)(F)F)n2)cc1SCC(F)(F)F [I-A-28] | 100 | 4.49 |  |  | 
15 | Cc1cc(C)c([S+](C)[O-])cc1-n1cnc(C(F)F)n1 (centres unmarked) [I-A-21] |  | 1.46 |  | 80 | 
16 | Cc1cc(F)c(-n2cnc(C(F)F)n2)cc1[S+]([O-])CC1CC1 (centres unmarked) [I-A-29] |  | 1.96 |  | 100 | 
17 | Cc1ccc(N/N=C(\N)C(F)(F)C(F)(F)F)c(C)c1 [X-2] |  | 3.65 |  |  | 
18 | Cc1ccc(NNC(=O)C(F)F)c(F)c1 [V-5] |  | 1.66 |  |  | 
19 | Cc1cc(C)c([S+]([O-])CC(F)(F)C(F)(F)F)cc1-n1cnc(C(F)F)n1 (centres unmarked) [I-A-35] | 100 | 2.72 |  |  | 
20 | Cc1cc(C)c(-n2cnc(C(F)F)n2)cc1SCCC(F)(F)F [I-A-36] | 100 | 3.68 | 100 |  | 
21 | Cc1cc(C)c([S+]([O-])CC(F)(F)C(F)F)cc1-n1cnc(C(F)F)n1 (centres unmarked) [I-A-32] | 100 | 2.35 |  |  | 
22 | Cc1ccc(-n2cnc(C(F)F)n2)cc1 [IV-A-7] |  | 2.26 |  |  | 
23 | Cc1ccc(NNC(=O)C(F)F)cc1 [V-4] |  | 1.46 |  |  | 
24 | Cc1cc(F)c(-n2cnc(C(F)F)n2)cc1[S+]([O-])CC(F)F (centres unmarked) [I-A-23] |  | 1.81 |  | 100 | 100
25 | Cc1cc(F)c(-n2cnc(C(F)F)n2)cc1[S+]([O-])CC#N (centres unmarked) [I-A-26] |  | 1.4 |  | 100 | 
26 | Cc1ccc(-n2cnc(C(F)(F)C(F)F)n2)c(C)c1 [IV-A-6] |  | 3.08 |  |  | 
